Test results from US6753345B2, “7-hexanolytaxol and methods for preparing the same” (Hauser, Inc., priority 1998, dated 2004).
In brackets after ≈: the same amount, converted by molar mass. Where two headings read alike, the source gives them in different places.

Columns and labels:
26 cell lines = experiment: 26 cell line growth inhibition screen, sulforhodamine stain; assay type: cell-based; details: 26 cell lines, 48 hour drug treatment, sulforhodamine stain
CCRF-CEM cells = experiment: G2/M arrest; assay type: cell-based; details: minimum concentration that results in 60% of CCRF-CEM cells to arrest in G2-M
HL-60(TB) = HL-60(TB) (Leukemia); PG=0; 48 hour incubation
NCI-H322M [1] = details: NCI-H322M (Non-Small Cell Lung Cancer); PG=0; 48 hour incubation
LOX-IMVI = LOX-IMVI (Melanoma); PG=0; 48 hour incubation
NCI-H322M [2] = experiment: cells; details: Homo sapiens, 48 h
OVCAR-3 = experiment: SRB cytotoxicity screening assay (Ovarian)
OVCAR-5 = experiment: SRB cytotoxicity screening assay (Ovarian)
OVCAR-6 = experiment: SRB cytotoxicity screening assay (Ovarian); details: 48 h
RPMI-8226 = experiment: SRB cytotoxicity screening assay (Leukemia)
SR = experiment: SRB cytotoxicity screening assay (Leukemia)
MALME-3M = experiment: SRB cytotoxicity screening assay (Melanoma); details: MALME-3M (Melanoma); PG=0; 48 hour incubation
M14 = experiment: SRB cytotoxicity screening assay (Melanoma)
SK-MEL-2 = experiment: SRB cytotoxicity screening assay (Melanoma); details: Homo sapiens, SK-MEL-2, 48 h, read-out: Log10 GI50 (converted)
UACC-257 = experiment: SRB cytotoxicity screening assay (Melanoma)
U251 = experiment: SRB cytotoxicity screening assay (CNS Cancer)
HCC-2998 = experiment: SRB cytotoxicity screening assay (Colon Cancer); details: HCC-2998 (Colon Cancer); PG=0; 48 hour incubation
RXF-393 = experiment: SRB cytotoxicity screening assay (Renal Cancer)
TK-10 = experiment: SRB cytotoxicity screening assay (Renal Cancer)
UO-31 = experiment: SRB cytotoxicity screening assay (Renal Cancer); details: Homo sapiens, UO-31, 48 h
MCF7 = experiment: SRB cytotoxicity screening assay (Breast Cancer); details: Homo sapiens, MCF7, 48 h
DU-145 = experiment: SRB cytotoxicity screening assay (Prostate Cancer)
EKVX = experiment: SRB cytotoxicity screening assay (Non-Small Cell Lung Cancer); details: Homo sapiens, EKVX, 48 h, read-out: Log10 LC50 (converted)
HOP-62 = experiment: as above
NCI-H226 = experiment: as above; details: Homo sapiens, NCI-H226, 48 h, read-out: Log10 LC50 (converted)
NCI-H522 = experiment: as above; details: NCI-H522 (Non-Small Cell Lung Cancer); PG=0; 48 hour incubation
[3] = read-out: Log10 GI50 (converted)
[4] = read-out: Log10 LC50 (converted)

For `CC(=O)O[C@H]1C(=O)[C@@]2(C)[C@H]([C@H](OC(=O)c3ccccc3)[C@]3(O)C[C@H](OC(=O)[C@H](O)[C@@H](NC(=O)c4ccccc4)c4ccccc4)C(C)=C1C3(C)C)[C@]1(OC(C)=O)CO[C@@H]1C[C@@H]2O` [Paclitaxel, paclitaxel, reference compound], the IC50 (26 cell lines; read-out: Mean IC50 (26 cell line Mean Growth inhibition IC50 value)) was 0.02 µg/mL (≈ 0.0234 µM), the IC50 (26 cell lines; read-out: Min IC50 (lowest observed IC50 value in 26 cell line screen)) was 0.001 µg/mL (≈ 0.00117 µM) and the “G2/M arrest MED” value (CCRF-CEM cells) was 0.025 µg/mL. For the same compound, the “Log10 TGI” value (HL-60(TB)) was over −4.53 molar, the “Log10 TGI” value (NCI-H322M [1]) was −4.46 molar and the “Log10 TGI” value (LOX-IMVI) was −4.65 molar. The GI50 (NCI-H322M [2]; [3]) was 0.0759 nM, the CC50 (NCI-H322M [2]; [4]) was over 100000 nM and the GI50 (OVCAR-3; Homo sapiens, OVCAR-3, 48 h, read-out: Log10 GI50 (converted)) was 0.0398 nM. The “Log10 TGI” value (OVCAR-3; OVCAR-3 (Ovarian), PG=0, 48 hour incubation) was −4.55 molar, the GI50 (OVCAR-5; Homo sapiens, OVCAR-5, 48 h, read-out: Log10 GI50 (converted)) was 0.417 nM and the CC50 (OVCAR-5; Homo sapiens, OVCAR-5, 48 h, read-out: Log10 LC50 (converted)) was over 100000 nM. The “Log10 TGI” value (OVCAR-5; OVCAR-5 (Ovarian), PG=0, 48 hour incubation) was −4.92 molar, the GI50 (OVCAR-6; [3]) was 0.0178 nM and the CC50 (OVCAR-6; [4]) was over 100000 nM. For the same compound, the CC50 (RPMI-8226; Homo sapiens, RPMI-8226, 48 h, read-out: Log10 LC50 (converted)) was over 100000 nM, the “Log10 TGI” value (RPMI-8226; RPMI-8226 (Leukemia), PG=0, 48 hour incubation) was over −4.00 molar and the GI50 (SR; Homo sapiens, SR, 48 h, read-out: Log10 GI50 (converted)) was 4.57 nM. The CC50 (SR; Homo sapiens, SR, 48 h, read-out: Log10 LC50 (converted)) was over 100000 nM, the “Log10 TGI” value (SR; SR (Leukemia), PG=0, 48 hour incubation) was over −4.00 molar and the “Log10 TGI” value (MALME-3M) was −4.46 molar. The GI50 (M14; Homo sapiens, M14, 48 h, read-out: Log10 GI50 (converted)) was 0.00186 nM, the “Log10 TGI” value (M14; M14 (Melanoma), PG=0, 48 hour incubation) was −4.62 molar and the GI50 (SK-MEL-2) was 0.295 nM. For the same compound, the GI50 (UACC-257; Homo sapiens, UACC-257, 48 h, read-out: Log10 GI50 (converted)) was 0.0501 nM, the CC50 (UACC-257; Homo sapiens, UACC-257, 48 h, read-out: Log10 LC50 (converted)) was 93300 nM and the “Log10 TGI” value (UACC-257; UACC-257 (Melanoma), PG=0, 48 hour incubation) was −4.52 molar. The GI50 (U251; Homo sapiens, U-251, 48 h, read-out: Log10 GI50 (converted)) was 0.00513 nM, the “Log10 TGI” value (U251; U251 (CNS Cancer), PG=0, 48 hour incubation) was −4.32 molar and the “Log10 TGI” value (HCC-2998) was −4.77 molar. The GI50 (RXF-393; Homo sapiens, RXF 393, 48 h, read-out: Log10 GI50 (converted)) was 4.79 nM, the CC50 (RXF-393; Homo sapiens, RXF 393, 48 h, read-out: Log10 LC50 (converted)) was 35500 nM and the “Log10 TGI” value (RXF-393; RXF-393 (Renal Cancer), PG=0, 48 hour incubation) was −4.90 molar. For the same compound, the GI50 (TK-10; Homo sapiens, TK-10, 48 h, read-out: Log10 GI50 (converted)) was 12.9 nM, the CC50 (TK-10; Homo sapiens, TK-10, 48 h, read-out: Log10 LC50 (converted)) was over 100000 nM and the “Log10 TGI” value (TK-10; TK-10 (Renal Cancer), PG=0, 48 hour incubation) was over −4.00 molar. The GI50 (UO-31; [3]) was 813 nM, the CC50 (UO-31; [4]) was over 100000 nM and the GI50 (MCF7; [3]) was 0.00204 nM. The CC50 (MCF7; [4]) was over 100000 nM, the “Log10 TGI” value (DU-145; DU-145 (Prostate Cancer), PG=0, 48 hour incubation) was over −4.00 molar and the GI50 (DU-145; Homo sapiens, DU-145, 48 h, read-out: Log10 GI50 (converted)) was 0.417 nM. The CC50 (DU-145; Homo sapiens, DU-145, 48 h, read-out: Log10 LC50 (converted)) was over 100000 nM, the CC50 (EKVX) was over 100000 nM and the “Log10 TGI” value (HOP-62; HOP-62 (Non-Small Cell Lung Cancer), PG=0, 48 hour incubation) was −4.80 molar. The GI50 (HOP-62; Homo sapiens, HOP-62, 48 h, read-out: Log10 GI50 (converted)) was 0.214 nM, the CC50 (HOP-62; Homo sapiens, HOP-62, 48 h, read-out: Log10 LC50 (converted)) was 89100 nM and the CC50 (NCI-H226) was over 100000 nM. For the same compound, the “Log10 TGI” value (NCI-H522) was −11.20 molar.
